Laboratory results as given in PMC5762315, “Inhibition of polo-like kinase 4 (PLK4): a new therapeutic option for rhabdoid tumors and pediatric medulloblastoma” (Oncotarget, 2017).
Where “and” joins values, the source holds several entries; their conditions need not be identical. Equal values may be shown once.

Assays:
Assay in all cases: biochemical
Type in all cases: biochemical
[1] = molecular target: various kinases (Homo sapiens, UniProt P00519, F317I); conditions: ABL1 F317I
[2] = molecular target: various kinases (Homo sapiens, UniProt P00533, G719S); conditions: EGFR (ErbB1) G719S
[3] = molecular target: various kinases (Homo sapiens, UniProt P05129); conditions: kinase PRKCG (PKC gamma); ZLYTE
[4] = molecular target: various kinases (Homo sapiens, UniProt P06241); conditions: FYN
[5] = molecular target: various kinases (Homo sapiens, UniProt P07948); conditions: LYN A
[6] = molecular target: various kinases (Homo sapiens, UniProt P08581, Y1235D); conditions: MET (cMet) Y1235D
[7] = molecular target: various kinases (Homo sapiens, UniProt P17252); conditions: kinase PRKCA (PKC alpha); ZLYTE
[8] = molecular target: various kinases (Homo sapiens, UniProt P29322); conditions: EPHA8
[9] = molecular target: various kinases (Homo sapiens, UniProt P68400); conditions: CSNK2A1 (CK2 alpha 1)
[10] = molecular target: various kinases (Homo sapiens, UniProt Q04912); conditions: MST1R (RON)
[11] = molecular target: T1, various kinases (Homo sapiens, UniProt Q15139); conditions: kinase PRKD1 (PKC mu); ZLYTE
T1 sequence (Q15139 1-912): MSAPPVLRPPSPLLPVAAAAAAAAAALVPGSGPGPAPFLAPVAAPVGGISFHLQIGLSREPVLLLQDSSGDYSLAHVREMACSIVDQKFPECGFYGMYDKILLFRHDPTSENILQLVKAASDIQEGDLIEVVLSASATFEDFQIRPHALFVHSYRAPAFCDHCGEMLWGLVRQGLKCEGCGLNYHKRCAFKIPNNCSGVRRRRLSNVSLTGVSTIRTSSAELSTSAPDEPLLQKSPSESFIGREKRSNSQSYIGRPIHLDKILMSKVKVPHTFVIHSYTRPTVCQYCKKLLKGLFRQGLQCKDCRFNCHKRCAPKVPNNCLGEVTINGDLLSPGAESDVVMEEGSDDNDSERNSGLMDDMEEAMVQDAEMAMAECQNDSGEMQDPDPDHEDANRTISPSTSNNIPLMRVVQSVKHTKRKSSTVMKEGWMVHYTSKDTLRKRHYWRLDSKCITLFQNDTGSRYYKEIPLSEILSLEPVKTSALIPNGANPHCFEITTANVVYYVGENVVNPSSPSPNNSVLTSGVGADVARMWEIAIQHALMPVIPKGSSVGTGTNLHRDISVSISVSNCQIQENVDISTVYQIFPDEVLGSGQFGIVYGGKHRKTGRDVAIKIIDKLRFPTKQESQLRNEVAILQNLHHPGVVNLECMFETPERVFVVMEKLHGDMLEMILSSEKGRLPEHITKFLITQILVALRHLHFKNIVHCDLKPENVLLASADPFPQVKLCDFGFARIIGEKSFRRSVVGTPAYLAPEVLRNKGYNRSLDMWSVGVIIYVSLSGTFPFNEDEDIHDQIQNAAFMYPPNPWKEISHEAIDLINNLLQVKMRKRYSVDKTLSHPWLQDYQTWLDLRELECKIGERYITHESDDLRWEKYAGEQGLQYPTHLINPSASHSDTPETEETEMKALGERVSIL

[12] = molecular target: various kinases (Homo sapiens, UniProt Q15349); conditions: kinase RPS6KA2 (RSK3); ZLYTE
[13] = molecular target: various kinases (Homo sapiens, UniProt Q8IY84); conditions: NIM1K
[14] = molecular target: various kinases (Homo sapiens, UniProt Q9UK32); conditions: kinase RPS6KA6 (RSK4); ZLYTE
[15] = molecular target: various kinases (Homo sapiens, UniProt Q9UPE1); conditions: kinase STK23 (MSSK1); ZLYTE
[16] = molecular target: various kinases (Homo sapiens, UniProt Q9Y6M4); conditions: CSNK1G3 (CK1 gamma 3)

Sequence of various kinases (Homo sapiens, UniProt Q15349) (Q15349 whole entry): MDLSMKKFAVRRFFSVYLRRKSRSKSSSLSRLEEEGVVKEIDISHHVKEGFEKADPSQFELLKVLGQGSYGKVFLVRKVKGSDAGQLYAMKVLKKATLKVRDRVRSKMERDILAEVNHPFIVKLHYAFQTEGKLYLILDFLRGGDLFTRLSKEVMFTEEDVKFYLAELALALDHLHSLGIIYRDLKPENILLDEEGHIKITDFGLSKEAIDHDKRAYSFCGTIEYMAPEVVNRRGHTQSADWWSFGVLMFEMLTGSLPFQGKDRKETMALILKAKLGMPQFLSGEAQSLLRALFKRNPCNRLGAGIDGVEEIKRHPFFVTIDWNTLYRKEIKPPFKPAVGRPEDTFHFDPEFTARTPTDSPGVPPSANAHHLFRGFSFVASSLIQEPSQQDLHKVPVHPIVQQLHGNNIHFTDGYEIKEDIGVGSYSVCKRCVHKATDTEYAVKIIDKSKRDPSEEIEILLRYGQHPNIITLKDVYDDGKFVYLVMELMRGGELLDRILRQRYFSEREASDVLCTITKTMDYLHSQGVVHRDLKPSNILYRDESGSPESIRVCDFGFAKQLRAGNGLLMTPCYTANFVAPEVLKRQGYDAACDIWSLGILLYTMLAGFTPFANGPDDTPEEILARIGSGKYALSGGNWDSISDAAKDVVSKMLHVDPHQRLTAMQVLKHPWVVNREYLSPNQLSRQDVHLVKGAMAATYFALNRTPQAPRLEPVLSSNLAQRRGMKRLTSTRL
Sequence of various kinases (Homo sapiens, UniProt Q9UK32) (Q9UK32 whole entry): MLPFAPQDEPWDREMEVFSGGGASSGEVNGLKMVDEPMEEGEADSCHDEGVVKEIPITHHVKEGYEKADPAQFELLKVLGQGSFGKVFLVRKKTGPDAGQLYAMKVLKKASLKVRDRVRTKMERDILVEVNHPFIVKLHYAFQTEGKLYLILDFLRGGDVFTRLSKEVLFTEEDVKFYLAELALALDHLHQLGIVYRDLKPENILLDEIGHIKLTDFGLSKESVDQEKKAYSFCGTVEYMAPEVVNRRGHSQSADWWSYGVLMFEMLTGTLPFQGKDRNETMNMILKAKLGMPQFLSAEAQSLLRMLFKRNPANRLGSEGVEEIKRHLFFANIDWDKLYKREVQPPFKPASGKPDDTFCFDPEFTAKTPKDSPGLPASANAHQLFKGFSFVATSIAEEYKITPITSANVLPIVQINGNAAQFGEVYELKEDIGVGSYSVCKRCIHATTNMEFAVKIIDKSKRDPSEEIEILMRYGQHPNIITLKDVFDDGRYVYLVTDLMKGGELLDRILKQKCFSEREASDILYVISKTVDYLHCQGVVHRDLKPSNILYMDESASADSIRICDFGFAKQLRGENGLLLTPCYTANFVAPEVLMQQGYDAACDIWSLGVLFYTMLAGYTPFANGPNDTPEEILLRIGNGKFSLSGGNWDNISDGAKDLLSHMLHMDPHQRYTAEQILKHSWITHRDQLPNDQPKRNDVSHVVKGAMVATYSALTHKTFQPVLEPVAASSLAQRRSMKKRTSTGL
Sequence of various kinases (Homo sapiens, UniProt Q9UPE1) (Q9UPE1 whole entry): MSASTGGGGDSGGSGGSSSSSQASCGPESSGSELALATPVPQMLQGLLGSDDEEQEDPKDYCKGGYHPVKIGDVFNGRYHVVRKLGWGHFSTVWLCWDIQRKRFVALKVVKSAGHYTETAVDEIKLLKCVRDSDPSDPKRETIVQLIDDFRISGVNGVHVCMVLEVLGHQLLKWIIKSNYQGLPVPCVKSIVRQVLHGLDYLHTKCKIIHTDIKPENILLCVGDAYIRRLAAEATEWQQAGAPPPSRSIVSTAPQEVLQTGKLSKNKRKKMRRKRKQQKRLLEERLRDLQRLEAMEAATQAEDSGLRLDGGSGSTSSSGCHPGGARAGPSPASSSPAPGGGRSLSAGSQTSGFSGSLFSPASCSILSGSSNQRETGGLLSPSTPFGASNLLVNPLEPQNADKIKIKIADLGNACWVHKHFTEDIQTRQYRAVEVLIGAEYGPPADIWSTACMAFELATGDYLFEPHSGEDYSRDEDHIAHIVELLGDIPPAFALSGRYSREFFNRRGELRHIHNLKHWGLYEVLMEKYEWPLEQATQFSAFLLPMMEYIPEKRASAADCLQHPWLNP
Sequence of various kinases (Homo sapiens, UniProt P07948) (P07948 whole entry): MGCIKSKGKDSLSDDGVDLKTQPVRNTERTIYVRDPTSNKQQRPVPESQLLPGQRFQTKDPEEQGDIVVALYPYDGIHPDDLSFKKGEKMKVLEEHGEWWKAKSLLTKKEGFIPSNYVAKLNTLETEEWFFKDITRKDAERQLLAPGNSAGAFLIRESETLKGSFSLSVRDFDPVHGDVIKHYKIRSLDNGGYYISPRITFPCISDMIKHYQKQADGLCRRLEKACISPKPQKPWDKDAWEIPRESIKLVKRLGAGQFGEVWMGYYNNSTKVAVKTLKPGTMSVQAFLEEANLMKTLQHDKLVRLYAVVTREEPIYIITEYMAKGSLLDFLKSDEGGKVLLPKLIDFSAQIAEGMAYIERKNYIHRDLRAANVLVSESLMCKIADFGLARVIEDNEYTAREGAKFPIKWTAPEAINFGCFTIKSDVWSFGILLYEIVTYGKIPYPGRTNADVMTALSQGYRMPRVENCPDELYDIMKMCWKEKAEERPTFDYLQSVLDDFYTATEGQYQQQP
Sequence of various kinases (Homo sapiens, UniProt P68400) (P68400 whole entry): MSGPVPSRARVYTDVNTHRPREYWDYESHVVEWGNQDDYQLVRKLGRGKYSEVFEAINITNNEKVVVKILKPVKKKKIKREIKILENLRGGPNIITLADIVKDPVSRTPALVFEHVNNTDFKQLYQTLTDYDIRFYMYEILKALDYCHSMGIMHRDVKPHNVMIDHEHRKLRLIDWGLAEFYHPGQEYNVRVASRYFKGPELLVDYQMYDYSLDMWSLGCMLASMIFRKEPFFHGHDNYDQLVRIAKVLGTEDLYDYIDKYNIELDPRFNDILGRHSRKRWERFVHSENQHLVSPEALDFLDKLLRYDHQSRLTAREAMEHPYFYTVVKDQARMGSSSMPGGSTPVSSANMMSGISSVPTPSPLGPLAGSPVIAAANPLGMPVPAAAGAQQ
Sequence of various kinases (Homo sapiens, UniProt P06241) (P06241 whole entry): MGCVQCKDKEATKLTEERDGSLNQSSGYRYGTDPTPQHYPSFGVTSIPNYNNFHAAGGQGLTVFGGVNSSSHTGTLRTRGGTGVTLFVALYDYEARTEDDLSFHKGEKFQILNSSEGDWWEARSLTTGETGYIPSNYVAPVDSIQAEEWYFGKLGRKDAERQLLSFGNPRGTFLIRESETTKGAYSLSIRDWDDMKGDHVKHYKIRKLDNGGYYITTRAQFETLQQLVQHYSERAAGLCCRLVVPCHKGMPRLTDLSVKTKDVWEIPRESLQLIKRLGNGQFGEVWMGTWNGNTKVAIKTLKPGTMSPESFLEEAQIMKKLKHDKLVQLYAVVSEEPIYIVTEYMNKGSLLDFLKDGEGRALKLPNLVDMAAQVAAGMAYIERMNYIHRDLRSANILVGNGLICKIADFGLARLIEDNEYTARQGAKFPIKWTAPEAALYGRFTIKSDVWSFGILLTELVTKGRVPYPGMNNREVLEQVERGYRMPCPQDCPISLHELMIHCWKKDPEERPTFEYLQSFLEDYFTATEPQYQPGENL

COc1ccc2c(c1)[C@]1(C[C@H]1c1ccc3c(/C=C/c4ccc(CN5C[C@@H](C)O[C@@H](C)C5)cc4)n[nH]c3c1)C(=O)N2 [CFI-400945]
% Inhibition [1]: 4% and 5% | % Inhibition [2]: 5% | % Inhibition Average [3]: -5% | % Inhibition Duplicate #1 [3]: -13% | % Inhibition Duplicate #2 [3]: 3% | % Inhibition [4]: 6% and 5% | % Inhibition [5]: 11% and 14% | % Inhibition [6]: 5% and 6% | % Inhibition Average [7]: 5% | % Inhibition Duplicate #1 [7]: -1% | % Inhibition Duplicate #2 [7]: 12% | % Inhibition [8]: -5% and 0% | % Inhibition [9]: 9% and 4% | % Inhibition [10]: 8% and 9% | % Inhibition Average [11]: 0% | % Inhibition Duplicate #1 [11]: -1% | % Inhibition Duplicate #2 [11]: 1% | % Inhibition Average [12]: 12% | % Inhibition Duplicate #1 [12]: 11% | % Inhibition Duplicate #2 [12]: 13% | % Inhibition [13]: 2% and 3% | % Inhibition Average [14]: 4% | % Inhibition Duplicate #1 [14]: 6% | % Inhibition Duplicate #2 [14]: 3% | % Inhibition Average [15]: -1% | % Inhibition Duplicate #1 [15]: -1% | % Inhibition Duplicate #2 [15]: -2% | % Inhibition [16]: 2% and -1%
